Laboratory results published in patent publication US7118895B2, “Process for producing aglycon by using diglycosidase and flavor-improved food containing the aglycon and converting agent to be used in the process” (Amano Enzyme Inc., priority 2000, dated 2006).

Tested on: Crude diglycosidase
Assay: Examination of substrate concentration in the conversion into isoflavone aglycons by diglycosidase using soybean materials;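 also: percent of the isoflavone family total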
Format: biochemical, Penicillium multicolor IAM7153
Procedure: Into 20 mM acetate buffer of pH 4.0 was suspended 0.1 g, 0.25 g, 0.5 g, 1.0 g, or 1.5 g of each of various soybean materials (roasted soy flour (manufactured by Fuji Shokuryo K.K.), soymilk (manufactured by Gitoh Shokuhin K.K.), defatted soybean (manufactured by Fuji Seiyu K.K.), concentrated soybean protein (manufactured by Fuji Seiyu K.K.)). The pH of the suspension was measured and the liquid volume was adjusted to 4.5 mL while the pH was adjusted to 4.0 with 1N hydrochloric acid. An enzyme solution wherein diglycosidase activity of crude diglycosidase was adjusted to 1.88 AU/mL was added thereto in an amount of 0.5 mL, whereby the final liquid volume was 5.0 mL. Namely, the ratio of the soybean material in the reaction mixture was 2%, 5%, 10%, 20%, or 30% (w/v). The whole was reacted at 55° C. under shaking. To 5 mL of the reaction mixture was added 7 mL of ethanol after 0, 1, 3, and 6 hours of the reaction. After ultrasonication, the mixture was thoroughly mixed. It was subjected to centrifugal separation at 2,000 rpm and room temperature for 5 minutes. Then, […] of the supernatant was placed in a 1.5 mL microtube and was subjected to centrifugal separation at 15,000 rpm and 4° C. for 10 minutes. The supernatant was filtered through a filter and each sample was suitably diluted by a factor of 1 to 6 depending on the substrate concentration. Fifty μL of the diluted solution was analyzed by HLPC (Tables 27 to 38).

[1] = soymilk, substrate concentration 2%, heat treatment of enzyme no, reaction time 0 h
[2] = soymilk, substrate concentration 2%, heat treatment of enzyme no, reaction time 1 h
[3] = soymilk, substrate concentration 2%, heat treatment of enzyme no, reaction time 3 h
[4] = soymilk, substrate concentration 2%, heat treatment of enzyme no, reaction time 6 h
[5] = soymilk, substrate concentration 2%, heat treatment of enzyme yes, reaction time 6 h
[6] = soymilk, substrate concentration 5%, heat treatment of enzyme no, reaction time 0 h
[7] = soymilk, substrate concentration 5%, heat treatment of enzyme no, reaction time 1 h
[8] = soymilk, substrate concentration 5%, heat treatment of enzyme no, reaction time 3 h
[9] = soymilk, substrate concentration 5%, heat treatment of enzyme no, reaction time 6 h
[10] = soymilk, substrate concentration 5%, heat treatment of enzyme yes, reaction time 6 h
[11] = soymilk, substrate concentration 10%, heat treatment of enzyme no, reaction time 0 h
[12] = soymilk, substrate concentration 10%, heat treatment of enzyme no, reaction time 1 h
[13] = soymilk, substrate concentration 10%, heat treatment of enzyme no, reaction time 3 h
[14] = soymilk, substrate concentration 10%, heat treatment of enzyme no, reaction time 6 h
[15] = soymilk, substrate concentration 10%, heat treatment of enzyme yes, reaction time 6 h
[16] = soymilk, substrate concentration 20%, heat treatment of enzyme no, reaction time 0 h
[17] = soymilk, substrate concentration 20%, heat treatment of enzyme no, reaction time 1 h
[18] = soymilk, substrate concentration 20%, heat treatment of enzyme no, reaction time 3 h
[19] = soymilk, substrate concentration 20%, heat treatment of enzyme no, reaction time 6 h
[20] = soymilk, substrate concentration 20%, heat treatment of enzyme yes, reaction time 6 h
[21] = soymilk, substrate concentration 30%, heat treatment of enzyme no, reaction time 0 h
[22] = soymilk, substrate concentration 30%, heat treatment of enzyme no, reaction time 1 h
[23] = soymilk, substrate concentration 30%, heat treatment of enzyme no, reaction time 3 h
[24] = soymilk, substrate concentration 30%, heat treatment of enzyme no, reaction time 6 h
[25] = soymilk, substrate concentration 30%, heat treatment of enzyme yes, reaction time 6 h

CC(=O)OC[C@H]1O[C@@H](Oc2ccc3c(=O)c(-c4ccc(O)cc4)coc3c2)[C@H](O)[C@@H](O)[C@@H]1O [acetly-daidzin]
Decomposition efficiency: ratio of each glycoside/aglycon within its isoflavone family (concentrated soybean protein, substrate concentration 2%, heat treatment of enzyme no, reaction time 0 h): 44.0%
Decomposition efficiency: ratio of each glycoside/aglycon within its isoflavone family (concentrated soybean protein, substrate concentration 2%, heat treatment of enzyme no, reaction time 1 h): 17.8%
Decomposition efficiency: ratio of each glycoside/aglycon within its isoflavone family (concentrated soybean protein, substrate concentration 2%, heat treatment of enzyme no, reaction time 3 h): 5.3%
Decomposition efficiency: ratio of each glycoside/aglycon within its isoflavone family (concentrated soybean protein, substrate concentration 2%, heat treatment of enzyme no, reaction time 6 h): not detected
Decomposition efficiency: ratio of each glycoside/aglycon within its isoflavone family (concentrated soybean protein, substrate concentration 2%, heat treatment of enzyme yes, reaction time 6 h): 43.2%
Decomposition efficiency: ratio of each glycoside/aglycon within its isoflavone family (concentrated soybean protein, substrate concentration 5%, heat treatment of enzyme no, reaction time 0 h): 44.0%
Decomposition efficiency: ratio of each glycoside/aglycon within its isoflavone family (concentrated soybean protein, substrate concentration 5%, heat treatment of enzyme no, reaction time 3 h): 20.5%
Decomposition efficiency: ratio of each glycoside/aglycon within its isoflavone family (concentrated soybean protein, substrate concentration 5%, heat treatment of enzyme no, reaction time 6 h): 12.0%
Decomposition efficiency: ratio of each glycoside/aglycon within its isoflavone family (concentrated soybean protein, substrate concentration 5%, heat treatment of enzyme yes, reaction time 6 h): 43.0%
Decomposition efficiency: ratio of each glycoside/aglycon within its isoflavone family (concentrated soybean protein, substrate concentration 10%, heat treatment of enzyme no, reaction time 0 h): 44.2%
Decomposition efficiency: ratio of each glycoside/aglycon within its isoflavone family (concentrated soybean protein, substrate concentration 10%, heat treatment of enzyme no, reaction time 1 h): 39.7%
Decomposition efficiency: ratio of each glycoside/aglycon within its isoflavone family (concentrated soybean protein, substrate concentration 10%, heat treatment of enzyme no, reaction time 3 h): 32.9%
Decomposition efficiency: ratio of each glycoside/aglycon within its isoflavone family (concentrated soybean protein, substrate concentration 10%, heat treatment of enzyme no, reaction time 6 h): 26.9%
Decomposition efficiency: ratio of each glycoside/aglycon within its isoflavone family (concentrated soybean protein, substrate concentration 10%, heat treatment of enzyme yes, reaction time 6 h): 43.4%
Decomposition efficiency: ratio of each glycoside/aglycon within its isoflavone family (concentrated soybean protein, substrate concentration 20%, heat treatment of enzyme no, reaction time 0 h): 44.1%
Decomposition efficiency: ratio of each glycoside/aglycon within its isoflavone family (concentrated soybean protein, substrate concentration 20%, heat treatment of enzyme no, reaction time 3 h): 41.5%
Decomposition efficiency: ratio of each glycoside/aglycon within its isoflavone family (concentrated soybean protein, substrate concentration 20%, heat treatment of enzyme no, reaction time 6 h): 37.9%
Decomposition efficiency: ratio of each glycoside/aglycon within its isoflavone family (concentrated soybean protein, substrate concentration 20%, heat treatment of enzyme yes, reaction time 6 h): 44.0%
Decomposition efficiency: ratio of each glycoside/aglycon within its isoflavone family (concentrated soybean protein, substrate concentration 30%, heat treatment of enzyme no, reaction time 0 h): 49.2%
Decomposition efficiency: ratio of each glycoside/aglycon within its isoflavone family (concentrated soybean protein, substrate concentration 30%, heat treatment of enzyme no, reaction time 1 h): 56.6%
Decomposition efficiency: ratio of each glycoside/aglycon within its isoflavone family (concentrated soybean protein, substrate concentration 30%, heat treatment of enzyme no, reaction time 3 h): 49.9%
Decomposition efficiency: ratio of each glycoside/aglycon within its isoflavone family (concentrated soybean protein, substrate concentration 30%, heat treatment of enzyme no, reaction time 6 h): 42.8%
Decomposition efficiency: ratio of each glycoside/aglycon within its isoflavone family (concentrated soybean protein, substrate concentration 30%, heat treatment of enzyme yes, reaction time 6 h): 48.4%

CC(=O)OC[C@H]1O[C@@H](Oc2ccc3c(=O)c(-c4ccc(O)cc4)coc3c2)[C@H](O)[C@@H](O)[C@@H]1O [acetyl-daidzin]
Decomposition efficiency: ratio of each glycoside/aglycon within its isoflavone family [1]: not detected
Decomposition efficiency: ratio of each glycoside/aglycon within its isoflavone family [2]: not detected
Decomposition efficiency: ratio of each glycoside/aglycon within its isoflavone family [3]: not detected
Decomposition efficiency: ratio of each glycoside/aglycon within its isoflavone family [4]: not detected
Decomposition efficiency: ratio of each glycoside/aglycon within its isoflavone family [5]: not detected
Decomposition efficiency: ratio of each glycoside/aglycon within its isoflavone family [6]: not detected
Decomposition efficiency: ratio of each glycoside/aglycon within its isoflavone family [7]: not detected
Decomposition efficiency: ratio of each glycoside/aglycon within its isoflavone family [8]: not detected
Decomposition efficiency: ratio of each glycoside/aglycon within its isoflavone family [9]: not detected
Decomposition efficiency: ratio of each glycoside/aglycon within its isoflavone family [10]: not detected
Decomposition efficiency: ratio of each glycoside/aglycon within its isoflavone family [11]: not detected
Decomposition efficiency: ratio of each glycoside/aglycon within its isoflavone family [12]: not detected
Decomposition efficiency: ratio of each glycoside/aglycon within its isoflavone family [13]: not detected
Decomposition efficiency: ratio of each glycoside/aglycon within its isoflavone family [14]: not detected
Decomposition efficiency: ratio of each glycoside/aglycon within its isoflavone family [15]: not detected
Decomposition efficiency: ratio of each glycoside/aglycon within its isoflavone family [16]: not detected
Decomposition efficiency: ratio of each glycoside/aglycon within its isoflavone family [17]: not detected
Decomposition efficiency: ratio of each glycoside/aglycon within its isoflavone family [18]: not detected
Decomposition efficiency: ratio of each glycoside/aglycon within its isoflavone family [19]: not detected
Decomposition efficiency: ratio of each glycoside/aglycon within its isoflavone family [20]: not detected
Decomposition efficiency: ratio of each glycoside/aglycon within its isoflavone family [21]: not detected
Decomposition efficiency: ratio of each glycoside/aglycon within its isoflavone family [22]: not detected
Decomposition efficiency: ratio of each glycoside/aglycon within its isoflavone family [23]: not detected
Decomposition efficiency: ratio of each glycoside/aglycon within its isoflavone family [24]: not detected
Decomposition efficiency: ratio of each glycoside/aglycon within its isoflavone family [25]: not detected

CC(=O)OC[C@H]1O[C@@H](Oc2cc(O)c3c(=O)c(-c4ccc(O)cc4)coc3c2)[C@H](O)[C@@H](O)[C@@H]1O [acetyl-genistin]
Decomposition efficiency: ratio of each glycoside/aglycon within its isoflavone family [1]: not detected
Decomposition efficiency: ratio of each glycoside/aglycon within its isoflavone family [2]: not detected
Decomposition efficiency: ratio of each glycoside/aglycon within its isoflavone family [3]: not detected
Decomposition efficiency: ratio of each glycoside/aglycon within its isoflavone family [4]: not detected
Decomposition efficiency: ratio of each glycoside/aglycon within its isoflavone family [5]: not detected
Decomposition efficiency: ratio of each glycoside/aglycon within its isoflavone family [6]: not detected
Decomposition efficiency: ratio of each glycoside/aglycon within its isoflavone family [7]: not detected
Decomposition efficiency: ratio of each glycoside/aglycon within its isoflavone family [8]: not detected
Decomposition efficiency: ratio of each glycoside/aglycon within its isoflavone family [9]: not detected
Decomposition efficiency: ratio of each glycoside/aglycon within its isoflavone family [10]: not detected
Decomposition efficiency: ratio of each glycoside/aglycon within its isoflavone family [11]: 0.5%
Decomposition efficiency: ratio of each glycoside/aglycon within its isoflavone family [12]: not detected
Decomposition efficiency: ratio of each glycoside/aglycon within its isoflavone family [13]: not detected
Decomposition efficiency: ratio of each glycoside/aglycon within its isoflavone family [14]: not detected
Decomposition efficiency: ratio of each glycoside/aglycon within its isoflavone family [15]: 0.5%
Decomposition efficiency: ratio of each glycoside/aglycon within its isoflavone family [16]: 0.6%
Decomposition efficiency: ratio of each glycoside/aglycon within its isoflavone family [17]: not detected
Decomposition efficiency: ratio of each glycoside/aglycon within its isoflavone family [18]: not detected
Decomposition efficiency: ratio of each glycoside/aglycon within its isoflavone family [19]: not detected
Decomposition efficiency: ratio of each glycoside/aglycon within its isoflavone family [20]: 0.6%
Decomposition efficiency: ratio of each glycoside/aglycon within its isoflavone family [21]: 0.6%
Decomposition efficiency: ratio of each glycoside/aglycon within its isoflavone family [22]: not detected
Decomposition efficiency: ratio of each glycoside/aglycon within its isoflavone family [23]: not detected
Decomposition efficiency: ratio of each glycoside/aglycon within its isoflavone family [24]: not detected
Decomposition efficiency: ratio of each glycoside/aglycon within its isoflavone family [25]: 0.6%
